In ChEMBL document CHEMBL4342412, “How To Design Selective Ligands for Highly Conserved Binding Sites: A Case Study Using N-Myristoyltransferases as a Model System” (J Med Chem, 2020):
Active and inactive are the calls of the source. No cut-off for these calls is given here.

What was measured:
[1] = molecular target: T1, Glycylpeptide N-tetradecanoyltransferase 1 (Homo sapiens, UniProt P30419, A452M/L453V/L462V/L495M/N473H/Q496L/R295Q/W297F); conditions: 0.5 h
[2] = molecular target: T2, Glycylpeptide N-tetradecanoyltransferase 1 (Homo sapiens, UniProt P30419)
T2 sequence (P30419 whole entry): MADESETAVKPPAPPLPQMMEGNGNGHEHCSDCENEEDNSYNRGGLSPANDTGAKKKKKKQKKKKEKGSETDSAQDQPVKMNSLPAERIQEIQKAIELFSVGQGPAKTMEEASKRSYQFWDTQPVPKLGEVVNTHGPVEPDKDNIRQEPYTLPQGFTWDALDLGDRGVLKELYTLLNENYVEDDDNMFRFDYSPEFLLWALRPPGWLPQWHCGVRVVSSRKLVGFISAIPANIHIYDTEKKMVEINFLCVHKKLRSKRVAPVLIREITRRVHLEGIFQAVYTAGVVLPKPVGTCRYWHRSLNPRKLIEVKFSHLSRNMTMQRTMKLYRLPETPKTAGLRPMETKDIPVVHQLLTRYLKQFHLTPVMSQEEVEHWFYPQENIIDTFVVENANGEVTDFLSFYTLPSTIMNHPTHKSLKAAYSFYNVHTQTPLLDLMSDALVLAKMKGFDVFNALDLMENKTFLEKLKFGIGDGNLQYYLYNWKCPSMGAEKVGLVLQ

[3] = molecular target: T3, NMT1 (glycylpeptide N-tetradecanoyltransferase 1) (Homo sapiens, UniProt P30419); conditions: probe GSNKSKPK peptide
T3 sequence (P30419 whole entry): T2 sequence (P30419 whole entry)

[4] = molecular target: T4, Glycylpeptide N-tetradecanoyltransferase (Leishmania major, UniProt Q4Q5S8)
T4 sequence (Q4Q5S8 whole entry): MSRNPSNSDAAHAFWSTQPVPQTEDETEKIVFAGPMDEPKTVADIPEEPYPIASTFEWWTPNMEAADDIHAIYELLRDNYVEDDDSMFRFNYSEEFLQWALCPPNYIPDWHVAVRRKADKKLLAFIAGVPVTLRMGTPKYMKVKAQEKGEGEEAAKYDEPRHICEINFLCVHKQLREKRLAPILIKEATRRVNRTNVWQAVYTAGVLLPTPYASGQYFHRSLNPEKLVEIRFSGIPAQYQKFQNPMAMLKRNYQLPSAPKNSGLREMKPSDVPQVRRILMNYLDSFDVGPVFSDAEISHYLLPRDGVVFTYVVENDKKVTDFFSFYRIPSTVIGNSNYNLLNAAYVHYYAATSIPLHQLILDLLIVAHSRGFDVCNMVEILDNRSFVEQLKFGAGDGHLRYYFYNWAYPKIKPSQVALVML

[5] = molecular target: T5, Glycylpeptide N-tetradecanoyltransferase (Leishmania major) (UniProt Q4Q5S8)
T5 sequence (whole entry): T4 sequence (Q4Q5S8 whole entry)

[6] = molecular target: T1, Glycylpeptide N-tetradecanoyltransferase 1
[7] = molecular target: T5, Glycylpeptide N-tetradecanoyltransferase (Leishmania major); conditions: 500 uM
[8] = molecular target: Genome polyprotein (dengue virus type 2) (UniProt P29990); experiment: Inhibition of Dengue virus 2 NS2B-NS3 protease at 100 uM
[9] = molecular target: Glycylpeptide N-tetradecanoyltransferase (Leishmania major, UniProt Q4Q5S8, H398N); experiment: Inhibition of Leishmania major NMT H398N mutant expressed in Escherichia coli Rosetta-2 cells using GSNKSKPK as substrate in presence of MyrCoA after 30 mins by CPM dye based fluorescence assay
[10] = molecular target: Glycylpeptide N-tetradecanoyltransferase (Leishmania major, UniProt Q4Q5S8, L421Q); experiment: Inhibition of Leishmania major NMT L421Q mutant expressed in Escherichia coli Rosetta-2 cells using GSNKSKPK as substrate in presence of MyrCoA after 30 mins by CPM dye based fluorescence assay
[11] = molecular target: Glycylpeptide N-tetradecanoyltransferase 1 (Homo sapiens, UniProt P30419, L495M/N473H/Q496L)
[12] = tested on: human NMT1 versus Leishmania major NMT; experiment: in vitro; conditions: human (numerator) and Leishmania major (denominator)
Description: Selectivity index, ratio of Ki for inhibition of N-terminal TEV cleavage site-fused His6 tagged human NMT1 (115 to 496 residues) to Ki for inhibition of N-terminal TEV cleavage site-fused His6 tagged Leishmania major NMT (11 to 421 residues)

T1 sequence (P30419 whole entry R295Q/W297F/A452M/L453V/L462V/N473H/L495M/Q496L): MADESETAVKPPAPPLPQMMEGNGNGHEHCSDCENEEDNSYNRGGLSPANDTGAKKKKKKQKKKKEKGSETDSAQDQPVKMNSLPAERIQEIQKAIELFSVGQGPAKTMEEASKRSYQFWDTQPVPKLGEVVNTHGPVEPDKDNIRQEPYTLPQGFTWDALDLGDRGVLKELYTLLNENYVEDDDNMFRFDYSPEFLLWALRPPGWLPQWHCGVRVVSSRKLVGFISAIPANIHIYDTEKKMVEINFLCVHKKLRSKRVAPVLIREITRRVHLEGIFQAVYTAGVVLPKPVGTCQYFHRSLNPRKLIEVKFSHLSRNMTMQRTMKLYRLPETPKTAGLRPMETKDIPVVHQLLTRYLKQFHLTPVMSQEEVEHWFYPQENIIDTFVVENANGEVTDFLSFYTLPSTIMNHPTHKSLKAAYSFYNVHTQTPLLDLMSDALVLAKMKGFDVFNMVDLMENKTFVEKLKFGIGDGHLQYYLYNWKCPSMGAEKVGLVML
Glycylpeptide N-tetradecanoyltransferase (Leishmania major, UniProt Q4Q5S8, L421Q), sequence (Q4Q5S8 whole entry L421Q): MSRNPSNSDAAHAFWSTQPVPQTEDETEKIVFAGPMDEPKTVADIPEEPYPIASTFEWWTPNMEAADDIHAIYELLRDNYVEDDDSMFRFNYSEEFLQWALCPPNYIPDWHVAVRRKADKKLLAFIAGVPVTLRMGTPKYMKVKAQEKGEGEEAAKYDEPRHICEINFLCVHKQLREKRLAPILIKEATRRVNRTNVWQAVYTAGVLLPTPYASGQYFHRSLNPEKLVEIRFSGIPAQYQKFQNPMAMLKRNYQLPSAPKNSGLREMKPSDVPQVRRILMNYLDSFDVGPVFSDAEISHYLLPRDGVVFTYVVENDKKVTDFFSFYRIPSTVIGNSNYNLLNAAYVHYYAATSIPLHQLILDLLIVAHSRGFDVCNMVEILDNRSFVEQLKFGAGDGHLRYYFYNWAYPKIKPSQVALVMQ
Glycylpeptide N-tetradecanoyltransferase (Leishmania major, UniProt Q4Q5S8, H398N), sequence (Q4Q5S8 whole entry H398N): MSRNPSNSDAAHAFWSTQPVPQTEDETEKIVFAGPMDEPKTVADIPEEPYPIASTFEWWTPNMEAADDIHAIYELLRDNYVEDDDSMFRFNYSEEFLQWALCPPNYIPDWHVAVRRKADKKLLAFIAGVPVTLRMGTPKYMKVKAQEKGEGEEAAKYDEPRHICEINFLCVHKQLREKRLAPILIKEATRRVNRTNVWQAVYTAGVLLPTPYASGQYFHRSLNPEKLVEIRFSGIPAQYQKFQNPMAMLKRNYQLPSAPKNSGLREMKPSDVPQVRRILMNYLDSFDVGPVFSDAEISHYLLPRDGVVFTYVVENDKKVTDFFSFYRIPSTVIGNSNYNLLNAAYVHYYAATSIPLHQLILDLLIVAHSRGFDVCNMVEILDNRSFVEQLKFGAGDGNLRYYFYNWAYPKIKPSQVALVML
Glycylpeptide N-tetradecanoyltransferase 1 (Homo sapiens, UniProt P30419, L495M/N473H/Q496L), sequence (P30419 whole entry N473H/L495M/Q496L): as the sequence (P30419 whole entry R295Q/W297F/A452M/L453V/L462V/N473H/L495M/Q496L) above, with Q295R, F297W, M452A, V453L, V462L counted along it

| inhibition [5] | inhibition [7] | inhibition [8] | Structure (SMILES) | Ki [2] | Ki [4] | Ki [6] | Ki [9] | Ki [10] | also measured |
| --- | --- | --- | --- | --- | --- | --- | --- | --- | --- |
| Dose-dependent effect | 91% | inactive | COc1ccccc1-n1cc(-c2ccnc(NCCC3CCCN3C)n2)cn1 (centres undefined) | > 40 nM | 19.6 nM | 16700 nM |  |  | inhibition at 500 µM [1]: 98%; inhibition at 0.5 h, 500 µM [3]: 59% |
|  |  |  | Cc1nn(C)c(C)c1N(C)S(=O)(=O)c1c(Cl)cc(CCCN2CCNCC2)cc1Cl |  | 19.8 nM |  | 1.6 nM | 2.3 nM |  |
|  |  |  | COc1cccc(Cc2noc(-c3ccccc3OC3CCNCC3)n2)c1 | 3300 nM | 70.8 nM | 33 nM |  |  | Ki [11]: 2100 nM; selectivity ratio [12]: 47.8 |
|  |  |  | Cc1nn(C)c(C)c1NS(=O)(=O)c1c(Cl)cc(-c2ccnc(N3CCN(C)CC3)c2)cc1Cl |  | 1.4 nM |  | 8.5 nM | 6 nM |  |
|  |  |  | N[C@@H](CC(=O)N1C[C@H](CO)[C@@H](c2ccc(Cl)cc2)C1)Cc1ccc(Cl)cc1 | 2900 nM | 280 nM | 29.2 nM |  |  | Ki [11]: 420 nM; selectivity ratio [12]: 10.5 |
|  |  |  | Cc1nn(C)c(C)c1Cc1nnc(-c2cc(Cl)ccc2OC2CCNCC2)o1 |  | 24.8 nM |  |  |  |  |
| Dose-dependent effect | 97% | inactive | COc1cccc(-n2cc(-c3ccnc(NCCC4CCCN4C)n3)cn2)c1 (centres undefined) |  | 7.3 nM |  |  |  |  |
|  |  |  | Cc1nn(C)c(C)c1N(C)S(=O)(=O)c1c(Cl)cc(CCCN2CCN3CCC[C@@H]3C2)cc1Cl |  | 2 nM |  | 1.3 nM | 36.6 nM |  |
|  |  |  | O=C(Cc1ccc(F)cc1)Nc1ccc2[nH]cc(C3CCNCC3)c2c1 |  | 980 nM |  | 520 nM | 2600 nM |  |
| Dose-dependent effect | 90% | inactive | Cc1cncn1C(C)C(=O)NCc1cccnc1C1CCCN(C)CC1 (centres undefined) |  | 52.3 nM |  |  |  |  |
